Measured values reported in patent publication US20060009519A1, “Antifeeding method against insects” (SUMITOMO CHEMICAL COMPANY, LIMITED, priority 2004, published 2006).

Tests used:
[1] = tested on: termites (Coptotermes formosanus, workers); experiment: Termite antifeeding test on treated filter paper (Test Example 2); type: in vivo; conditions: 10 mg of test compound on filter paper (33 mm in diameter); fifty termites; one week; tests repeated three times
Procedure: An acetone solution (1 ml) containing 10 mg of the test compound was dropped on filter paper (33 mm in diameter, Milk sediment disk 1026 produced by Toyo Roshi K.K.) and dried at room temperature overnight. The filter paper was set in a white plastic cup (35 mm in diameter) having one hole on side and one hole in bottom, wherein the diameter of the holes are about 3 mm and termites can easily go through the holes. The white plastic cup was put into the 200 ml-volume plastic cup having several holes on the bottom which was covered with gypsum in 2 cm thickness. Fifty termites (Coptotermes formosanus, workers) were put in the 200 ml-volume plastic cup and kept in the container, the bottom of which was filled with wet cotton wool. The container was covered for keeping wet therein. After one week, the filter paper was recovered, dried well at room temperature, and then the weight was measured. The decreasing ratio of the weight was calculated. The tests were repeated three times. For a reference, filter paper treated with only 1 ml of acetone was tested and the decreasing ratio of the weight was calculated in the same manner.

[2] = tested on: termites (Coptotermes formosanus, workers); experiment: Termite antifeeding test on treated Japanese black pine wood (Test Example 1); type: in vivo; conditions: 100 termites, 3 weeks in the dark
Procedure: A designated amount (10 mg or 100 mg) of octyl gallate was dissolved in 0.3 ml of acetone and uniformly spread on a piece of Japanese black pine wood (1 cm×1 cm×2 cm) with pipette. The wood was allowed to stand overnight at room temperature, dried at 60° C. in a thermostat for 3 days, and then the weight of the wood was measured. The bottom of a 200 ml-volume plastic cup having several holes on the bottom was covered with gypsum in 2 cm thickness. The wood prepared above and 100 termites (Coptotermes formosanus, workers) were put in the plastic cup and kept in the dark for 3 weeks. For that time, cotton wool containing water was set under the plastic cup, and the gypsum was kept wet through the hole. After 3 weeks, the wood was recovered, dried at 60° C. in a thermostat for 3 days, and then the weight of the wood was measured. The decreasing ratio of the weight was calculated. For a reference, a piece of Japanese black pine wood treated with only 0.3 ml of acetone was tested and the decreasing ratio of the weight was calculated in the same manner.

SMILES	The decreasing ratio of the weight (%) [1]	The decreasing ratio of the weight (%) ([2]; 10 mg of octyl gallate on Japanese black pine wood (1 cm×1 cm×2 cm))	The decreasing ratio of the weight (%) ([2]; 100 mg of octyl gallate on Japanese black pine wood (1 cm×1 cm×2 cm))
CCCCCCCCCCOC(=O)c1cc(O)c(O)c(O)c1 [Decyl gallate, decyl gallate]	0%	–	–
CCCCCCCCCCCCOC(=O)c1cc(O)c(O)c(O)c1 [Dodecyl gallate]	1.13%	–	–
CCCCCCCCOC(=O)c1cc(O)c(O)c(O)c1 [octyl gallate, Octyl gallate]	–	2.4%	0.9%
